These results are taken from PMC3545992, “Trisubstituted Pyrazolopyrimidines as Novel Angiogenesis Inhibitors” (PLoS ONE, 2013).

The subject of experiment [1] is HMEC-1 cells. The experiment is described as follows: Crystal violet proliferation assay. The experiment is classed as cell-based, human. The following applies: HMEC-1, 72 h, read-out: IC50 endothelial cell proliferation. Here is the method: HMEC-1 cells were seeded to a density of 1,500 cells/well. After 24 h of incubation, a zero point control was stained with crystal violet. The remaining cells were left untreated as positive control or treated with 0.3-1-3-10–30 µM of the indicated compounds. After 72 h additional incubation, relative proliferation was determined by crystal violet staining and quantified as absorption at 550 nm.
HMEC-1 were seeded into 96-well-plates (1,500 cells/well). After 24 h, the cells were stimulated with the indicated compounds. At the same time point, cells in a reference plate were stained with crystal violet, serving as initial cell number. After 72 hours of stimulation, cells were fixed and stained with crystal-violet solution for 10 minutes, washed with water, and air dried. Crystal violet was eluted with dissolving buffer and absorbance was measured at 550 nm (Tecan Sunrise Absorbance reader, TECAN, Crailsheim, Germany). In a parallel series of experiments, cells seeded at the same cell density as in the proliferation assays were treated with 30 µM of the respective compound for 72 h. Afterwards, 10 µg/ml propidium iodide was added for 30 min to counterstain cells for membrane integrity. Phase contrast and fluorescence images were obtained with an inverted Nikon microscope (Ti, Nikon, Düsseldorf, Germany) equipped with a 10x objective.

Experiment [2] has as its system HUVECs. The experiment is described as follows: Scratch assay (migration assay). The format is cell-based, human. The following applies: 10 µM, 16 h, HUVECs. Here is the method:
A: HMEC-1 cells were seeded in the same density as for the proliferation assay and treated with the respective compound at 30 µM for 72 h to test whether reduced cell numbers in the proliferation assay are due to inhibition of proliferation or to excessive cell death. No increase of detached, obviously dead or propidium iodide positive cells was detected. B and C: Confluent layers of HUVECs were scratched and the cells were allowed to migrate for 16 h in the presence or absence of 10 µM of the compounds. B: The columns indicate the area re-covered by migrating cells (n = 3, mean ± SEM, * p<0.05, One Way ANOVA, Dunnett). C: Scratches at endpoint, representative images taken out of three experiments.
HUVECs were seeded into a 24-well plate. After reaching confluency, cells were scratched using a 100 µl pipette tip. The wounded monolayers were washed twice with PBS containing Ca^2+/Mg^2+; then growth medium containing the indicated concentration of the compounds was added. After 16 h of migration, cells were washed and subsequently fixed with 4% paraformaldehyde. […] Images were taken using the TILLvisON system (TILL Photonics GmbH, Gräfelfing, Germany) and a CCD-camera connected to an Axiovert 200 microscope (Zeiss, Oberkochen, Germany). Quantitative image analysis of the cell covered area was done by Wimasis GmbH, Munich. A completely closed scratch was set as 100% migration, the area of the original open scratch was set as 0% migration.

For experiment [3], the system named is HUVECs. The experiment in a line: Chemotaxis assay in FCS gradient (µ-slides Chemotaxis). The format is cell-based, human. The following applies: for chemotaxis of endothelial cells (in words): 10 µM; for inhibition at 10 µM: Homo sapiens, HUVEC, read-out: inhibition of chemotaxis in accumulative distance. As to the method: Figure 5 LGR 1404, 1406 and 1407 decrease chemotaxis of endothelial cells. Chemotaxis of HUVECs in the presence or absence of 10 µM of the indicated compounds was determined in µ-slides Chemotaxis. A: Quantitative evaluation of accumulated and euclidean distance, velocity and y-forward migration index (n = 3, mean ± SEM, * p<0.05, One Way ANOVA, Dunnett). B: Representative cell tracking plots of untreated and treated cells.
The effect of the LGR compounds on endothelial cell chemotaxis was determined using Collagen IV coated μ-slides Chemotaxis (ibidi, Martinsried, Germany). HUVECs (5×10^6 cells per ml) were seeded into the observation channel of the slides according to the manual of the manufacturer, and the cells were allowed to attach for 4 hours. Then, the chambers of the chemotaxis slide were completely filled with serum-free medium M 199; and growth medium containing 30% FCS was added to one chamber in order to generate an FCS-gradient from 0% to […]. 10 µM of the indicated compounds were added both to the M199 and to the 30% FCS. Chemotaxis was observed over 20 hours by live-cell imaging with a Zeiss LSM 510 META confocal microscope equipped with an incubator stage (EMBLem, Heidelberg, Germany). A time series was collected taking 1 picture every 10 minutes. For cell tracking and data analysis, the manual tracking plug-in (Fabrice Cordelieres) and the Chemotaxis and Migration Tool (Version 1.01, ibidi, Martinsried, Germany) for ImageJ were used. Euclidean distance (direct distance from the starting point to the end point) was used as an indicator of directionality of movement, accumulative distance (sum of all migrated distances from track to track) and velocity (mean velocity of every cell calculated as ratio between track to track distance and time) were used as a measure for total motility.

Experiment [4] concerns the target T1, Aurora kinase A (Homo sapiens, UniProt O14965).
T1 construct: purchased ProQinase (Freiburg, Germany)
T1 sequence (O14965 1-403): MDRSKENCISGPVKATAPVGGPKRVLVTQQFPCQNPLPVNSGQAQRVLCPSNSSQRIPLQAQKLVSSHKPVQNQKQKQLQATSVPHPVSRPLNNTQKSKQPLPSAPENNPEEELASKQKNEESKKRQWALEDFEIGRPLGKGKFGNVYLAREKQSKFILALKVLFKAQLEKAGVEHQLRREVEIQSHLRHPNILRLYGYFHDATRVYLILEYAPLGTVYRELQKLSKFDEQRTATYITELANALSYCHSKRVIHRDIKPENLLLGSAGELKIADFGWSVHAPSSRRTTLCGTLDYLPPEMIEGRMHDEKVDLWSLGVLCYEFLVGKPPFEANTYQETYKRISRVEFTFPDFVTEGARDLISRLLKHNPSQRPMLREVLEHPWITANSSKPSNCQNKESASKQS
The experiment is described as follows: In vitro kinase profile (ProQinase). The format is biochemical. As to the method:
(§1) Therefore, it was of interest to see which kinases, especially which Cdks, are inhibited by those compounds. The kinase profiling was performed by ProQinase (Freiburg, Germany) for LGR 1406 and 1407. For LGR 1404 kinase profiling has recently been published previously. LGR 1406 and 1407 were tested for their IC50 in a panel of 24 kinases, including the Cdk1, Cdk2, Cdk4, Cdk5, Cdk6, Cdk7 and Cdk9. The other kinases tested were PTK6, EGFR, FAK, FGFR1 and FGFR2, NLK, PAK4, VEGFR1 and VEGFR2, MEK1, ROCK1, RAF1, ALK, RSK3, AURKA, and AMPKα1.

Experiment [5] deals with T2, Cdk2/CycE (Homo sapiens, UniProt P24941).
T2 construct: purchased ProQinase (Freiburg, Germany)
The experiment is described as follows: In vitro kinase profile (ProQinase). The experiment is classed as biochemical. As to the method: as §1

In experiment [6] the target is T3, Cdk5/p25 (Homo sapiens, UniProt Q00535).
T3 construct: purchased ProQinase (Freiburg, Germany)
T3 sequence (Q00535 whole entry): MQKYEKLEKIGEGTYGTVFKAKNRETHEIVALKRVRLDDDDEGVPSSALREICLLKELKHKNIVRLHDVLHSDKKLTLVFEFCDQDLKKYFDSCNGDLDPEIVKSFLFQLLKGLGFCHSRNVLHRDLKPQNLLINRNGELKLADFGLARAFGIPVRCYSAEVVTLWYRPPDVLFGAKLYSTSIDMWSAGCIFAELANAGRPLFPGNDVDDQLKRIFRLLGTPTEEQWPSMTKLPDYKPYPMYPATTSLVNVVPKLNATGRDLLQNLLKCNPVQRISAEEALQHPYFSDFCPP
T3 sequence (Q15078 99-307 partner limits assumed): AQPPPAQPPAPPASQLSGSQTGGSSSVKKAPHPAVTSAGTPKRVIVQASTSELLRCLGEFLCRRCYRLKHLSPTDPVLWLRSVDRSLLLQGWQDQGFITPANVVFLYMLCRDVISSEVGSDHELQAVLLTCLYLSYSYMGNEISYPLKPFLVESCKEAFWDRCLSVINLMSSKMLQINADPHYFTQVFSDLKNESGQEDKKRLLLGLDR
The experiment is described as follows: In vitro kinase profile (ProQinase). The format is biochemical. As to the method: as §1

In experiment [7] the target is T4, Cdk6/CycD1 (Homo sapiens, UniProt Q00534).
T4 construct: purchased ProQinase (Freiburg, Germany)
T4 sequence (Q00534 whole entry): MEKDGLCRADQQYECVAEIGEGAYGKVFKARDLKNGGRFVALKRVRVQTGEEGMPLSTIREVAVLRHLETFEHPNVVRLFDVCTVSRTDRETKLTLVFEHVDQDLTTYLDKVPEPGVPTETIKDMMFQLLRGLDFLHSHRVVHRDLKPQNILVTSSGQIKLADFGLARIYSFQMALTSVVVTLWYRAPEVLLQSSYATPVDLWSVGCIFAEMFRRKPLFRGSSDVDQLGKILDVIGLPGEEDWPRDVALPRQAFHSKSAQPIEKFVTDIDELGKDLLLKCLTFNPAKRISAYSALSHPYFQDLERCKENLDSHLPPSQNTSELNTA
T4 sequence (P24385 whole entry partner): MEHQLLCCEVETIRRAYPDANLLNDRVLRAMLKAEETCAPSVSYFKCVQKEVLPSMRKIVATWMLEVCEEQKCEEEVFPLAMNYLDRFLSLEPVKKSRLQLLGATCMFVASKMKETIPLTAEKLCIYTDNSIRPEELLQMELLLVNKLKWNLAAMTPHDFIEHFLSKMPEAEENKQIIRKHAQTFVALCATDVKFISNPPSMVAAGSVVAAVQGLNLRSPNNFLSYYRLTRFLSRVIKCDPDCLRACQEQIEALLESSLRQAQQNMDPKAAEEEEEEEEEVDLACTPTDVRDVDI
The experiment in a line: In vitro kinase profile (ProQinase). The experiment is classed as biochemical. Here is the method: as §1

Experiment [8] deals with T5, Cdk7/CycH/MAT1 (Homo sapiens, UniProt P50613).
T5 construct: purchased ProQinase (Freiburg, Germany)
T5 sequence (P50613 whole entry): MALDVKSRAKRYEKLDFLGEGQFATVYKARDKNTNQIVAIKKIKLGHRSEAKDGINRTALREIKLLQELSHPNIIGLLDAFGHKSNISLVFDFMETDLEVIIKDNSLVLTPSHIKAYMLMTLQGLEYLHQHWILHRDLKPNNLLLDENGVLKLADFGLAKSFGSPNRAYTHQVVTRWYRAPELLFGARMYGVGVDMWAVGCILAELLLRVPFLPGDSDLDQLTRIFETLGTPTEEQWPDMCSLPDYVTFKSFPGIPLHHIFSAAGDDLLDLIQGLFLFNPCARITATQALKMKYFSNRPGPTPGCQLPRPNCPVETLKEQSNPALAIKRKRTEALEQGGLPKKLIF
T5 sequence (P51946 whole entry partner): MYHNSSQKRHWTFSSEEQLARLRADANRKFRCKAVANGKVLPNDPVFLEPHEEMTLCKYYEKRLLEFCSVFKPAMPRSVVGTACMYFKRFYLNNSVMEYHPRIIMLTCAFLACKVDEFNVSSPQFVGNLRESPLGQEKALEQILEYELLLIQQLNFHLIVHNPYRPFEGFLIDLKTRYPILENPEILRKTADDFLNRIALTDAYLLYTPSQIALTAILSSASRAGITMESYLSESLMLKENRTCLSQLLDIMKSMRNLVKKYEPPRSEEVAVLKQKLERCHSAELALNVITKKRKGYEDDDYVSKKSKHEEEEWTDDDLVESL
T5 sequence (P51948 whole entry partner): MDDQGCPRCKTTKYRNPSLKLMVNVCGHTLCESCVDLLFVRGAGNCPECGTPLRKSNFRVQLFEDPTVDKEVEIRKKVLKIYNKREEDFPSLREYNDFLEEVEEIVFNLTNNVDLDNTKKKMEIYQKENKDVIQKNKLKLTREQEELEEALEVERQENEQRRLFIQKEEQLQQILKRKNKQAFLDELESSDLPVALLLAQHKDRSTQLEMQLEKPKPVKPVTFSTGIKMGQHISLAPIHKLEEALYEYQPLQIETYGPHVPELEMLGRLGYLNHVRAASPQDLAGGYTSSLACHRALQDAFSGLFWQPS
The experiment in a line: In vitro kinase profile (ProQinase). The format is biochemical. As to the method: as §1

The target in experiment [9] is T6, Cdk9/CycT (Homo sapiens, UniProt P50750).
T6 construct: purchased ProQinase (Freiburg, Germany)
T6 sequence (P50750 whole entry): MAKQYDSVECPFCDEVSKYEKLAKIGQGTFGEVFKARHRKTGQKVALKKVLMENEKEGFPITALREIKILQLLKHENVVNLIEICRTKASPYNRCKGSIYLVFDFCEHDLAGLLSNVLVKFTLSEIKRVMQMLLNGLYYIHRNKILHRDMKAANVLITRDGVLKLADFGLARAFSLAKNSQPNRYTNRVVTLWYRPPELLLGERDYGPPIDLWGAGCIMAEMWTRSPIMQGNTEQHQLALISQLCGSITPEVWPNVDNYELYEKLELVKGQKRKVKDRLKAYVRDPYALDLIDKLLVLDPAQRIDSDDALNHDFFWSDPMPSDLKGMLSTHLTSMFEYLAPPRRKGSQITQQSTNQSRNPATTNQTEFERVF
T6 sequence (O60563 whole entry partner): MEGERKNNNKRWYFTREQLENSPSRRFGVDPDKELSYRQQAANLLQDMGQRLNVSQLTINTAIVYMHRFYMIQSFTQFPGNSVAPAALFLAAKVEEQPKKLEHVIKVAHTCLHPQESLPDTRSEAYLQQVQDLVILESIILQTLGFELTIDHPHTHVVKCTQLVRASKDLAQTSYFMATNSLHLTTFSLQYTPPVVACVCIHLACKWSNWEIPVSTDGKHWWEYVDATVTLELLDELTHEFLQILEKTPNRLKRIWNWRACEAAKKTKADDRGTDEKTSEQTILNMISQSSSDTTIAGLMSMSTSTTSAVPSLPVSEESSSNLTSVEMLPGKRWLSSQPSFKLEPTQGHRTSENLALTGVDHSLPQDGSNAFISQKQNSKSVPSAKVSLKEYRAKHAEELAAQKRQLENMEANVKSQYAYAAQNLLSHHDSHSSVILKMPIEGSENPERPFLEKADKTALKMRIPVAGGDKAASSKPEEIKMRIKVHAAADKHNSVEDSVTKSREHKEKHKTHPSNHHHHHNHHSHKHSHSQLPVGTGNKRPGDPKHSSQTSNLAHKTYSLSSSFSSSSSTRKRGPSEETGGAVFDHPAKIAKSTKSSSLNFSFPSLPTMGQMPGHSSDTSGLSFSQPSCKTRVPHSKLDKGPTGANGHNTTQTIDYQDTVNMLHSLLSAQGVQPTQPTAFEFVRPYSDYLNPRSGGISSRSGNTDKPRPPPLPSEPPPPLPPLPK
The experiment is described as follows: In vitro kinase profile (ProQinase). The format is biochemical. Here is the method:
as §1

SMILES strings stand for the structures. pIC50: −log10 of the molar value. Read-outs that look alike come from different tables or passages of the source.

Broadly, the inhibition is the change of the read-out against control, counted positive when it falls. As for `CC[C@H](CO)Nc1nc(NCc2ccccc2)c2n[nH]c(C(C)C)c2n1` [LGR 1404, 7-Benzylamino-5(R)-[(1-hydroxymethyl)propylamino]-3-isopropyl-1(2)H-pyrazolo[4,3-d]pyrimidine], the pIC50 in [1] (Homo sapiens) is 5.11. In addition, in experiment [2], the “effect on endothelial cell migration (in words)” value (“effect” below) is on record as “significantly decrease” and the “reduction of endothelial cell migration” value amounted to 27%. Moreover, in [3], the “chemotaxis of endothelial cells (in words)” value (“chemotaxis” below) is “decrease” and the inhibition at 10 µM was 50%.
As to `CC(C)c1n[nH]c2c(NCc3ccccc3)nc(NC3CCCCC3N)nc12` (stereo not shown) [LGR 1406, 5-[(2-E/Z-aminocyclohexyl)amino]-7-benzylamino-3-isopropyl-1(2)H-pyrazolo[4,3-d]pyrimidine], the pIC50 in [1] was 6.03; in experiment [1] (Homo sapiens) it was ~6.00; in experiment [4], > 5.00; in experiment [5] it was 6.23; in experiment [6], 6.36; in experiment [7] it was < 4.00. For the same molecule, the values for the pIC50 in experiment [8] and in experiment [9] were < 4.00 and 6.00, respectively. Moreover, the “effect” value in experiment [2] was “significantly decrease”. Also, in [2], the “reduction of endothelial cell migration” value is 51%. In experiment [3], the “chemotaxis” value is reported as “decrease”. Also, the inhibition at 10 µM in experiment [3] turned out to be 70%.
`CC(C)c1n[nH]c2c(NCc3ccccc3)nc(NC3CCC(N)CC3)nc12` (stereo not shown) [LGR 1407, 5-[(4-E-aminocyclohexyl)amino]-7-benzylamino-3-isopropyl-1(2)H-pyrazolo[4,3-d]pyrimidine]: the pIC50 in experiment [1] (Homo sapiens) was 5.44; in [4], ≥ 5.00; in [5], 6.00; in experiment [6] it was 5.80; in [7], 4.04; in [8], < 4.00. Moreover, in experiment [9], the pIC50 was 5.72. The “effect” value in [2] is “significantly decrease”. Also, the “reduction of endothelial cell migration” value in experiment [2] worked out at 31%. Further, the “chemotaxis” value in experiment [3] is listed as “decrease”. The inhibition at 10 µM in experiment [3] came to 60%.
